Assay results reported in US5753635A, “Purine derivatives and their use as anti-coagulants” (Berlex Laboratories, Inc., priority 1996, dated 1998).
Non-standard residues stand in square brackets, D forms with d. Residues, ends and D or L forms follow the SMILES beside them. *: point of attachment. pNA = O=[N+]([O-])c1ccc(N*)cc1

Columns and labels:
[1] = target: T1, Human tissue plasminogen activator (tPA) (Two chains, Sigma) (Homo sapiens, UniProt P00750); experiment: In vitro chromogenic assay for tissue plasminogen activator; type: biochemical; conditions: substrate concentration stated equal to Km; 10 nM tPA, pH 7.5, ambient temperature; read-out: Km (S2288)
T1 construct: purchased Sigma
T1 sequence (P00750 311-562 limits assumed): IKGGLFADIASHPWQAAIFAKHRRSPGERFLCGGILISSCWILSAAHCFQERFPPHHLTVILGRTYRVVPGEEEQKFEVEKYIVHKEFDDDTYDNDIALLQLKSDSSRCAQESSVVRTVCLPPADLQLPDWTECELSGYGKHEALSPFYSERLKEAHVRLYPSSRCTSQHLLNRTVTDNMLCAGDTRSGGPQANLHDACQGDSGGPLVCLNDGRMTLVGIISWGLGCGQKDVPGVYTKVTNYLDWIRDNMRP
T1 sequence (P00750 36-310 partner limits assumed): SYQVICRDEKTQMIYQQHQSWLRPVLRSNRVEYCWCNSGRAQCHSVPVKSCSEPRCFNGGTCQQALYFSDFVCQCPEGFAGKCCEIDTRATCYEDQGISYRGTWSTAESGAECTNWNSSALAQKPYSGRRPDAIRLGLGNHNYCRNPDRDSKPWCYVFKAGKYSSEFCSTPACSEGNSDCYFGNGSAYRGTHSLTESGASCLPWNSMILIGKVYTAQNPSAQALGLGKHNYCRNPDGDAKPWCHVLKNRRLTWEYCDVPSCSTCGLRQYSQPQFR
Method: (§1) The activities were determined as an initial rate of cleavage of the peptide p-nitroanilide by the enzyme. The cleavage product, p-nitroaniline, absorbs at 405 nm with a molar extinction coefficient of 9920 M^-1 cm^-1.
(§2) 50 mM TrisHCl, 150 mM NaCl, 2.5 mM CaCl2, and 0.1% polyethylene glycol 6000, pH 7.5.
3. Human tissue plasminogen activator (tPA) (Two chains, Sigma) stock solution: 1 mg/mL, stored at -80° C. (working solution (2×): 1361 ng/mL in assay buffer, prepare prior to use).
3. S2288 (tPA assay) stock solution: 10 mM in dH2 O, stored at 4° C. (working solution (4×):
1484 μM in assay buffer).
Assays were performed in 96-well microtiter plates in a total volume of 200 μl. […] Concentrations of the standard inhibitor compound in the assay were from 5 μM to 0.021 μM in 1 to 3 dilution. Concentration of the test compounds in the assay typically were from 10 μM to 0.041 μM in 1 to 3 dilution. […]
(§3) The enzyme kinetics were measured at 405 nm at 10 seconds intervals for five minutes in a THERMOmax plate reader at ambient temperature.
(§4) Enzyme rates were calculated as mOD/min based on the first two minutes readings. The IC50 values were determined by fitting the data to the log-logit equation (linear) or the Morrison equation (non-linear) with an EXCEL spread-sheet. […]

Human thrombin = target: T2, Human thrombin (Homo sapiens, UniProt P00734); experiment: In vitro chromogenic assay for thrombin; type: biochemical; conditions: substrate concentration stated equal to Km; 20 nM thrombin, pH 7.5, ambient temperature; read-out: Km (S2302)
T2 construct: Human thrombin stock solution; purchased Enzyme Research Lab
Method: as §1, §2
2. Human thrombin stock solution: Stored at -80° C. (working solution (2×): 1200 ng/mL or 40 nM in assay buffer, prepare prior to use).
2. S2302 (Thrombin assay) stock solution: 10 mM in dH2 O, stored at 4° C. (working solution (4×): 1200 μM in assay buffer).
Assays were performed in 96-well microtiter plates in a total volume of 200 μl. […] Concentrations of the standard inhibitor compound in the assay were from 5 μM to 0.021 μM in 1 to 3 dilution. Concentration of the test compounds in the assay typically were from 10 μM to 0.041 μM in 1 to 3 dilution. For potent test compounds, the concentrations used in the factor Xa assays were further diluted 100 fold (100 nM to 0.41 nM) or 1000 fold (10 nM to 0.041 nM). […]
as §3, §4

Km [1] [µM] | Km (Human thrombin) [µM] | Compound
371 |  | CC[C@@H](C)[C@@H](N)C(=O)N1CCC[C@H]1C(=O)N[C@@H](CCCN=C(N)N)C(=O)Nc1ccc([N+](=O)[O-])cc1 [Example S2288] (H-[dI]-Pro-Arg-pNA)
 | 300 | N=C(N)NCCC[C@H](NC(=O)[C@H](Cc1ccccc1)NC(=O)[C@H]1CCCN1)C(=O)Nc1ccc([N+](=O)[O-])cc1 [Example S2302] (H-[dP]-Phe-Arg-pNA)
